From patent US20200323962A1, “LIPOPHILIC PEPTIDE PRODRUGS” (YISSUM RESEARCH DEVELOPMENT COMPANY OF THE HEBREW …, priority 2017, published 2020)
Like-named read-outs stand apart in the source and are kept apart here. Marks after values point to notes of the source that are not given here. Where a SMILES comes first, the peptide text is derived from it. [ ]: non-standard residue; d: D form. Arg(ω,ω'-(C6H13OCO)2) = CCCCCCOC(=O)N=C(NCCC[C@H](N)C(=O)O)NC(=O)OCCCCCC

Tests used:
[1] = for Mass retention / Permeability, Mean / Permeability, replicate 1 / Permeability, replicate 2 / Permeability, replicate 3: PAMPA, pH 7.4
[2] = for Papp A→B: Caco-2, Papp (AB); for Papp B→A: Caco-2, Papp (BA)
[3] = pH 7.4, LogD
in vitro = settings: human; for efflux ratio at 90 min, 10 µM: Caco-2, pH 7.4, Net efflux (quotient of Papp (BA) to Papp (AB)); for Papp A→B at 90 min, 10 μM: Caco-2, pH 7.4, Papp (AB); for Papp B→A at 90 min, 10 μM: Caco-2, pH 7.4, Papp (BA)
[4] = pH 7.4 (mean in parentheses below reported bound)

Compound | PAMPA permeability [1] | Mass retention [1] [%] | Permeability, Mean [1] | Permeability, replicate 1 [1] | Permeability, replicate 2 [1] | Permeability, replicate 3 [1] | Papp A→B ([2]; Mean) [×10⁻⁶ cm/s] | Papp A→B ([2]; replicate 1) [×10⁻⁶ cm/s] | Papp A→B ([2]; replicate 2) [×10⁻⁶ cm/s] | Papp B→A ([2]; Mean) [×10⁻⁶ cm/s] | Papp B→A ([2]; replicate 1) [×10⁻⁶ cm/s] | Papp B→A ([2]; replicate 2) [×10⁻⁶ cm/s] | Papp B→A ([2]; replicate 3) [×10⁻⁶ cm/s] | logD ([3]; pH 7.4 (mean / reported value)) | efflux ratio at 90 min, 10 µM (in vitro) | other results
CC(C)C[C@@H]1NC(=O)CNC(=O)[C@@H]2CCCN2C(=O)[C@@H]2CCCN2C(=O)[C@H](CC(C)C)NC(=O)[C@H](CC(=O)O)NC(=O)CNC(=O)[C@H](CCCNC(=N)N)NC1=O [FRX068] (cyclo(RGDLPPGL)) |  | 2 | <−7 Log10[10^−6 cm/s] | <−7 Log10[10^−6 cm/s] | <−7 Log10[10^−6 cm/s] | <−7 Log10[10^−6 cm/s] | 0.3 | 0.3 | 0.2 | 0.3 | 0.3 | 0.3 | 0.3 | < -1 | 1.1 | Papp A→B ([2]; replicate 3): 0.2 ×10⁻⁶ cm/s; logD [3, 4]: -1.49
CC(C)C[C@@H]1NC(=O)[C@H](CC(=O)O)NC(=O)CNC(=O)[C@H](CCCNC(=N)N)NC(=O)[C@H](Cc2ccccc2)NC(=O)[C@@H]2CCCN2C(=O)[C@@H]2CCCN2C(=O)[C@H](CC(C)C)NC(=O)[C@H](C)NC1=O [OM1186] (cyclo(RGDLALPPF)) |  | 13 | <−7 Log10[10^−6 cm/s] | <−7 Log10[10^−6 cm/s] | <−7 Log10[10^−6 cm/s] | <−7 Log10[10^−6 cm/s] | < 0.3 | < 0.6 | < 0.3 | 0.2 | 0.1 | 0.2 | 0.3 | -0.19 | 0.6 | 
CC(C)NCC(O)COc1cccc2ccccc12 (stereo not drawn) [Propranolol] |  |  |  |  |  |  |  |  |  |  |  |  |  |  | 0.8 | Papp A→B at 90 min, 10 μM (in vitro; Mean): 18.1 ×10⁻⁶ cm/s; Papp A→B at 90 min, 10 μM (in vitro; replicate 1): 14.9 ×10⁻⁶ cm/s; Papp A→B at 90 min, 10 μM (in vitro; replicate 2): 24.1 ×10⁻⁶ cm/s; Papp A→B at 90 min, 10 μM (in vitro; replicate 3): 15.3 ×10⁻⁶ cm/s; Papp B→A at 90 min, 10 μM (in vitro; Mean): 15.3 ×10⁻⁶ cm/s; Papp B→A at 90 min, 10 μM (in vitro; replicate 2): 15.3 ×10⁻⁶ cm/s; Papp B→A at 90 min, 10 μM (in vitro; replicate 3): 17 ×10⁻⁶ cm/s
C=C[C@H]1C[N@@]2CC[C@H]1C[C@@H]2[C@@H](O)c1ccnc2ccc(OC)cc12 [Quinidine, reference compound] |  |  | −4.5* Log10[10^−6 cm/s] | −4.6 Log10[10^−6 cm/s] | −4.5 Log10[10^−6 cm/s] | −4.5 Log10[10^−6 cm/s] |  |  |  |  |  |  |  |  |  | Mass retention ([1]; 4 h, 50 μM): 56%

Second part, led by results:

PAMPA permeability [1] | Mass retention [1] [%] | Permeability, Mean [1] | Permeability, replicate 1 [1] | Permeability, replicate 2 [1] | Permeability, replicate 3 [1] | Papp A→B ([2]; Mean) [×10⁻⁶ cm/s] | Papp A→B ([2]; replicate 1) [×10⁻⁶ cm/s] | Papp A→B ([2]; replicate 2) [×10⁻⁶ cm/s] | Papp B→A ([2]; Mean) [×10⁻⁶ cm/s] | Papp B→A ([2]; replicate 1) [×10⁻⁶ cm/s] | Papp B→A ([2]; replicate 2) [×10⁻⁶ cm/s] | Papp B→A ([2]; replicate 3) [×10⁻⁶ cm/s] | logD ([3]; pH 7.4 (mean / reported value)) | efflux ratio at 90 min, 10 µM (in vitro) | Compound | other results
low permeability | 10 | <−7 Log10[10^−6 cm/s] | <−7 Log10[10^−6 cm/s] | <−7 Log10[10^−6 cm/s] | <−7 Log10[10^−6 cm/s] |  |  |  |  |  |  |  |  |  | CCCCCCOC(=O)N=C(N)NCCC[C@@H]1NC(=O)[C@@H](C(C)C)N(C)C(=O)[C@H](C)N(C)C(=O)[C@H](C)NC(=O)[C@H](CC(=O)OC)NC(=O)CNC1=O [#29P-Hoc] | 
>−5 to >−6 | 80 | −5.9 Log10[10^−6 cm/s] | −6.2 Log10[10^−6 cm/s] | −5.7 Log10[10^−6 cm/s] | −5.7 Log10[10^−6 cm/s] | < 0.01 | < 0.01 | < 0.01 | 0.4 | 0.5 | 0.5 | 0.3 | > 4.5 |  | CCCCCCOC(=O)N=C(NCCC[C@@H]1NC(=O)[C@H](Cc2ccccc2)NC(=O)[C@@H]2CCCN2C(=O)[C@@H]2CCCN2C(=O)[C@H](CC(C)C)NC(=O)[C@H](C)NC(=O)[C@H](CC(C)C)NC(=O)[C@H](CC(=O)OC)NC(=O)CNC1=O)NC(=O)OCCCCCC [AR372] (cyclo(ALPPF[Arg(ω,ω'-(C6H13OCO)2)]GD(OMe)L)) | Papp A→B ([2]; replicate 3): < 0.01 ×10⁻⁶ cm/s; logD [3, 4]: 4.85; logD ([3]; pH 7.4 (single replicate)): 4.8
does not enhance the permeability | 36 | −6.5 Log10[10^−6 cm/s] | −8.1 Log10[10^−6 cm/s] | −6.6 Log10[10^−6 cm/s] | −6.5 Log10[10^−6 cm/s] |  |  |  |  |  |  |  |  |  | CCCCCCOC(=O)N=C(NCCC[C@@H]1NC(=O)[C@H](C(C)C)N(C)C(=O)[C@@H](Cc2ccccc2)NC(=O)[C@H](CC(=O)OC)NC(=O)CNC1=O)NC(=O)OCCCCCC [Cil.-P, c(f*VR(Hoc)2 GD)] | 
